Our source for the IC50 values is patent US11459324B2, “O-glycoprotein-2-acetamido-2-deoxy-3-D-glycopyranosidase inhibitors” (BIOGEN MA INC., priority 2018, dated 2022).

pIC50: −log10 of the molar value. Bounds are passed on as bounds.

The experiment addresses T1, Recombinant full length human OGA enzyme (Homo sapiens, UniProt O60502).
T1 construct: Recombinant full length human OGA enzyme was purchased from Origene; purchased Origene
T1 sequence (O60502 1-916): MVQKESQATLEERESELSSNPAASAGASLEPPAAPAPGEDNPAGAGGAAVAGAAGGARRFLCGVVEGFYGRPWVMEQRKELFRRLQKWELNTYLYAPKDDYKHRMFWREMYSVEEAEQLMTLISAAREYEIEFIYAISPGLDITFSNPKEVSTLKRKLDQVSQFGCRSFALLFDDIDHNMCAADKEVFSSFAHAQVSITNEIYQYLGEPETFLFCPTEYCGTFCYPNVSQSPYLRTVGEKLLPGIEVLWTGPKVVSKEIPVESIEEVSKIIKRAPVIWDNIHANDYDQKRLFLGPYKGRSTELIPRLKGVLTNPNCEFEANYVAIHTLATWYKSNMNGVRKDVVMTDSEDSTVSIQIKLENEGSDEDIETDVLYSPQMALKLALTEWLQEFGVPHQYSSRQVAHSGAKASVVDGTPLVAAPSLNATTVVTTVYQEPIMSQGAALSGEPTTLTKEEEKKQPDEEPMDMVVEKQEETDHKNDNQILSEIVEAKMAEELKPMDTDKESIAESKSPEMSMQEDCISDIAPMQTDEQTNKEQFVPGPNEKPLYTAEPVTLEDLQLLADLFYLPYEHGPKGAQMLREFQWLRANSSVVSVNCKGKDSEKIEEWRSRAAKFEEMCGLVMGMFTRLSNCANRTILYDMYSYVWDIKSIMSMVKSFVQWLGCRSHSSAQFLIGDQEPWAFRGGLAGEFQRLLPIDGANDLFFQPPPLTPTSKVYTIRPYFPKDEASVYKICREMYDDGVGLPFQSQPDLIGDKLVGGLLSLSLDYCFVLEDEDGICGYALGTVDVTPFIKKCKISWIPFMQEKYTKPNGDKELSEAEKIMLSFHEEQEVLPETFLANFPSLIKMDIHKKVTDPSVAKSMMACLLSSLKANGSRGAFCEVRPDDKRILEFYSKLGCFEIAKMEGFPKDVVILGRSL
Briefly: OGA Enzyme Inhibition Biochemical Assay. Particulars: 1 nM OGA, 100 μM 4-MUGlcNAc (Km), pH 6.4, 90 minutes at room temperature, 10-point dose-response from 20 μM. As to the method: OGA Enzyme Inhibition Biochemical Assay
Recombinant full length human OGA enzyme was purchased from Origene. 4-MUGlCNAc substrate was purchased from Sigma. All other reagents were purchased from Sigma or Fisher. Assay buffer consists of the McIlvaine buffer system, pH 6.4 (0.2M Na2HPO4 mixed with 0.1M citric acid) and 0.01% BSA. Reactions consist of 1 nM OGA, 100 μM 4-MUGlcNAc (Km), and compound in a final volume of 10 μl. Reactions were incubated for 90 minutes at room temperature and quenched with 40 μl of 3M glycine, pH 10 and read on a Perkin Elmer Envision plate reader (Ex: 355 nm/Em: 460 nm). Compounds were tested with a 10-point dose-response starting from 20 μM with a 4-fold dilution. Data was fit using GraphPad Prism using a 4-parameter fit with variable slope.
For the compound `CC(=O)Nc1ncc(CN2CC[C@H](C)[C@@H](Cc3ncc(F)cn3)C2)s1` (single isomer, unassigned) [Example 2-38], the pIC50 is 7.57.

With `CC(=O)Nc1ncc(CN2CCC[C@@H]([C@H](C)c3ncc(F)cn3)C2)s1` (single isomer, unassigned) [Example 2-30], the pIC50 was 7.49.

In the case of `CC(=O)Nc1nc(F)c(CN2CC[C@H](Cc3cc(C)ncc3Cl)C2)s1` [Example 3-30, (S)—N-(5-((3-((5-chloro-2-methylpyridin-4-yl)methyl)pyrrolidin-1-yl)methyl)-4-fluorothiazol-2-yl)acetamide], the pIC50 was 8.29.

For the compound `CC(=O)Nc1nc(F)c(CN2CCCC(Cc3noc(C)n3)C2)s1` (centres unmarked) [Example 4-18, N-(4-fluoro-5-((3-((5-methyl-1,2,4-oxadiazol-3-yl)methyl)piperidin-1-yl)methyl)thiazol-2-yl)acetamide], the pIC50 is 8.18.

For the compound `CC(=O)Nc1ncc(CN2CCCC(Cc3ccn(C)n3)C2)s1` (centres unmarked) [Example 1-47, N-(5-((3-((1-methyl-1H-pyrazol-3-yl)methyl)piperidin-1-yl)methyl)thiazol-2-yl)acetamide], the pIC50 is 7.80.

On to `CC(=O)Nc1ncc(CN2CCCC(Cn3cc(C)cn3)C2)s1` (centres unmarked) [Example 4-10, N-(5-((3-((4-methyl-1H-pyrazol-1-yl)methyl)piperidin-1-yl)methyl)thiazol-2-yl)acetamide], for which the pIC50 was 6.64.

Regarding `CC(=O)Nc1ncc(CN2CCCC(Cc3cc(C)ccn3)C2)s1` (centres unmarked) [Example 1-45, N-(5-((3-((4-methylpyridin-2-yl)methyl)piperidin-1-yl)methyl)thiazol-2-yl)acetamide], the pIC50 was 7.62.

With `CC(=O)Nc1nc(F)c(CN2C[C@H](Cc3ncc(F)cn3)C[C@@H]2C)s1` [Example 3-40, N-(4-fluoro-5-(((2S,4S)-4-((5-fluoropyrimidin-2-yl)methyl)-2-methylpyrrolidin-1-yl)methyl)thiazol-2-yl)acetamide], the pIC50 is 6.82.

For the compound `CC(=O)Nc1ncc(CN2C[C@@H](Cc3ncc(F)cn3)C[C@H]2C)s1` (single isomer, unassigned) [Example 2-19], the pIC50 was 9.00.

As for `CC(=O)Nc1ncc(CN2CCC(F)(Cc3ncc(F)cn3)C2)s1` (centres unmarked) [Example 2-16, N-(5-((3-fluoro-3-((5-fluoropyrimidin-2-yl)methyl)pyrrolidin-1-yl)methyl)thiazol-2-yl)acetamide], the pIC50 is 6.06.

Take `CC(=O)Nc1nc(F)c(CN2C[C@@H](Cc3ncc(F)cn3)C[C@@H]2C)s1` [Example 3-41, N-(4-fluoro-5-(((2S,4R)-4-((5-fluoropyrimidin-2-yl)methyl)-2-methylpyrrolidin-1-yl)methyl)thiazol-2-yl)acetamide]: the pIC50 is above 9.00.

As for `CC(=O)Nc1ncc(CN2C[C@@H](Cc3ncc(F)cn3)CC[C@@H]2C)s1` (single isomer, unassigned) [Example 2-26], the pIC50 is 6.00.

Take `CC(=O)Nc1nc(F)c(CN2CCC[C@H](Cc3ccc(C)nc3)C2)s1` [Example 3-20, (R)-N-(4-fluoro-5-((3-((6-methylpyridin-3-yl)methyl)piperidin-1-yl)methyl)thiazol-2-yl)acetamide]: the negative-log IC50 (pIC50) is above 9.00.

In the case of `CC(=O)Nc1ncc(CN2CCC[C@H](Cc3ncc(C(F)F)cn3)C2)s1` [Example 3-6, (R)-N-(5-((3-((5-(difluoromethyl)pyrimidin-2-yl)methyl)piperidin-1-yl)methyl)thiazol-2-yl)acetamide], the pIC50 was 8.70.

Turning to `CC(=O)Nc1ncc(CN2CC(Cc3ncc(F)cn3)CC(F)(F)C2)s1` (centres unmarked) [Example 2-13, N-(5-((3,3-difluoro-5-((5-fluoropyrimidin-2-yl)methyl)piperidin-1-yl)methyl)thiazol-2-yl)acetamide], the pIC50 is 6.35.

Consider `CC(=O)Nc1ncc(CN2CCCC(Cc3nc(C)nc4ccsc34)C2)s1` (centres unmarked) [Example 1-43, N-(5-((3-((2-methylthieno[3,2-d]pyrimidin-4-yl)methyl)piperidin-1-yl)methyl)thiazol-2-yl)acetamide], for which the negative logarithm of the IC50 (pIC50) was 8.52.

On to `CC(=O)Nc1ncc(CN2CCCC(Cc3ccc(F)cn3)C2)s1` (centres unmarked) [Example 2-5, N-(5-((3-((5-fluoropyridin-2-yl)methyl)piperidin-1-yl)methyl)thiazol-2-yl)acetamide], for which the pIC50 is 7.64.

With `CC(=O)Nc1nc(F)c(CN2C[C@H](Cc3noc(C)n3)CC[C@@H]2C)s1` [Example 4-15, N-(4-fluoro-5-(((2S,5S)-2-methyl-5-((5-methyl-1,2,4-oxadiazol-3-yl)methyl)piperidin-1-yl)methyl)thiazol-2-yl)acetamide], the pIC50 was 8.80.

Take `CC(=O)Nc1ncc(CN2CC(Cc3ncc(F)cn3)C(F)(F)C2)s1` (centres unmarked) [Example 3-3, N-(5-((3,3-difluoro-4-((5-fluoropyrimidin-2-yl)methyl)pyrrolidin-1-yl)methyl)thiazol-2-yl)acetamide]: the pIC50 is 6.04.

As for `COc1cc(C[C@H]2CCN(Cc3sc(NC(C)=O)nc3F)C2)ncn1` [Example 3-31, (R)-N-(4-fluoro-5-((3-((6-methoxypyrimidin-4-yl)methyl)pyrrolidin-1-yl)methyl)thiazol-2-yl)acetamide], the pIC50 is 7.85.

With `CC(=O)Nc1ncc(CN2C[C@H](Cc3ncc(F)cn3)CC[C@@H]2C)s1` (single isomer, unassigned) [Example 2-25], the pIC50 is 8.30.

Turning to `CC(=O)Nc1ncc(CN2CCCC(Cn3cc(C(C)=O)cn3)C2)s1` (centres unmarked) [Example 4-11, N-(5-((3-((4-acetyl-1H-pyrazol-1-yl)methyl)piperidin-1-yl)methyl)thiazol-2-yl)acetamide], the pIC50 is 7.82.

In the case of `CC(=O)Nc1ncc(CN2CCC[C@H](Cc3ccc(Cl)cc3)C2)s1` (stereo in doubt) [Example 4-25, N-(5-((3-(4-chlorobenzyl)piperidin-1-yl)methyl)thiazol-2-yl)acetamide], the pIC50 is 8.05.

On to `CC(=O)Nc1ncc(CN2CCCC(Cc3cncc(C(F)(F)F)n3)C2)s1` (centres unmarked) [Example 1-26, N-(5-((3-((6-(trifluoromethyl)pyrazin-2-yl)methyl)piperidin-1-yl)methyl)thiazol-2-yl)acetamide], for which the pIC50 was 7.52.

Turning to `CC(=O)Nc1ncc(CN2CC(F)CC(Cc3ncc(F)cn3)C2)s1` (centres unmarked) [Example 3-2, N-(5-((3-fluoro-5-((5-fluoropyrimidin-2-yl)methyl)piperidin-1-yl)methyl)thiazol-2-yl)acetamide], the pIC50 was 7.96.

In the case of `CC(=O)Nc1ncc(CN2CCC[C@H](Cc3ccc(C(F)F)nc3)C2)s1` [Example 2-8, (R)-N-(5-((3-((6-(difluoromethyl)pyridin-3-yl)methyl)piperidin-1-yl)methyl)thiazol-2-yl)acetamide], the negative-log IC50 (pIC50) was 7.74.

For the compound `CC(=O)Nc1ncc(CN2CC[C@H](Cc3ncc(F)cn3)C2)s1` (single isomer, unassigned) [Example 2-1], the pIC50 was 8.15.

Regarding `CC(=O)Nc1ncc(CN2CCC[C@H](Cc3ncc(C(F)(F)F)cn3)C2)s1` [Example 2-9, (R)-N-(5-((3-((5-(trifluoromethyl)pyrimidin-2-yl)methyl)piperidin-1-yl)methyl)thiazol-2-yl)acetamide], the pIC50 was 7.52.

Turning to `CC(=O)Nc1ncc(CN2CCCC(Cn3cnc4ccccc43)C2)s1` (centres unmarked) [Example 4-24, N-(5-((3-((1H-benzo[d]imidazol-1-yl)methyl)piperidin-1-yl)methyl)thiazol-2-yl)acetamide], the pIC50 is 7.24.

In general, pIC50 refers to −log10 of the IC50, conventionally taken in molar units.
